Source: patent US20030154507A1, “Synthetic herbicide resistance gene” (priority 2001, published 2003)

Assays:
[1] = test system: transgenic 2,4-D resistant cotton containing the naturally-occurring tfdA gene construct; test: Spray of 2,4-D res control seedlings, visual damage evaluation; assay type: in vivo; settings: 55 plants, 1/2 lb/acre acid equivalents at 24 days, evaluated after 10-14 days
Description: (§1) To verify that the inserted synthetic SAD genes were inheritable and to gain an indication of the number of gene insertions, seeds from the seven fertile SAD transgenic cotton plants were planted into hydroponic rock wool slabs (Hummert, St. Louis, Mo.) that had been saturated with Peters Professional water-soluble fertilizer (5-11-26 HYDRO-SOL, supplemented with calcium nitrate and magnesium sulfate to provide a complete nutrient compliment; Hummert, St. Louis, Mo.). The hydroponic rock wool slabs were placed on benches in a greenhouse, and nutrients were maintained at optimal levels using a non-recycling hydroponic watering system. Plants were grown under greenhouse conditions (28° C.±5° C. air temperature) for 24 days. At this point, the plants were removed to a spray hood, sprayed with 2,4-D amine at the normal field rate of 1/2 lb/acre acid equivalents, maintained in the hood for 24 hours to allow the 2,4-D to volatilize, and then placed back in the greenhouse.
(§2) The negative control of Coker 312 that had been regenerated from tissue culture did show some signs of resistance, so these ratios are not to be considered as definitive measures of Mendelian inheritance of the SAD gene.

[2] = test system: SAD transgenic cotton plants; test: Spray of seedlings from fertile SAD transgenic cotton lines, visual damage evaluation; assay type: in vivo; settings: 1/2 lb/acre acid equivalents at 24 days, evaluated after 10-14 days
Description: as §1, §2

[3] = test system: transgenic cotton plants containing the SAD2 gene (Coker 312); test: Greenhouse spray of PCR-positive SAD2 transformed cotton plants with 2,4-D amine; assay type: in vivo; settings: of 95 plants; 1 lb/acre acid equivalents (twice normal field rate); sprayed at squaring stage or later
Description: The two binary vectors containing the SAD2 gene, pPZP211-PNPT-311-SAD2 and pPZP211-PNPT-512-SAD2, were individually introduced into the EHA 105 strain of Agrobacterium tumefaciens (Hood et al., Transgenic Research, 2:208-218 (1993)) by direct transformation as described by Walker-Peach and Velten, in Plant Molecular Biology Manual, section B1:1-19 (Gelvin, Shilperoort and Verma, eds., Kluwer Academic Publishers, Dordrecht, The Netherlands, 1994)). The constructs were subsequently introduced by Agrobacterium transfection into cotyledon explants from the cotton variety Coker 312 (Coker Seed Inc.). This was achieved by isolating sterile cotyledon tissue (derived from seedlings grown in culture from surface-sterilized seed as described by Trolinder and Gooden, Plant Cell Reports, 6:231-234 (1987)), generating explants (by use of a sterile hole punch), and submerging the explants in a 48-hour-old culture of EHA 105, containing the appropriate construct, grown at 28° C. […]
A total of 111 kanamycin-resistant cotton seedlings were generated (44 were generated in the pPZP211-PNPT-311-SAD2 transformations, and 67 in the pPZP211-PNPT-512-SAD2 transformations). Each plant was analyzed for the presence of the SAD synthetic coding sequence and the NPTII coding sequence by PCR to ensure the integrity of the inserted DNA. […]

[4] = test system: negative controls (cotton); test: Respray event, negative controls; assay type: in vivo; settings: all negative controls; 1/2 lb/acre acid equivalents
Procedure: (§3) Each plant tested positive for the SAD construct by PCR. These plants were grown for a further 14 days and then resprayed with 2,4-D amine at the normal field rate of 1/2 lb/acre acid equivalents. […] The 35 plants were grown to maturity, and seeds were collected.

[5] = test system: SAD transgenic cotton plants; test: Respray of undamaged SAD plants with 2,4-D amine; assay type: in vivo; settings: all 35 plants (5 from each of 7 SAD lines); resprayed at 1/2 lb/acre acid equivalents 14 days after first evaluation
Procedure: as §3

[6] = test system: Coker 312 (not transgenic) regenerated from somatic embryos; test: Spray of 2,4-D sens control seedlings, visual damage evaluation; assay type: in vivo, cotton; settings: 45 plants, 1/2 lb/acre acid equivalents at 24 days, evaluated after 10-14 days
Description: as §1, §2

[7] = test system: plants; settings: in vivo; cited from earlier work

SMILES: CNC.O=C(O)COc1ccc(Cl)cc1Cl [2,4-D amine]
- No Damage (number of plants) [1]: 7
- Severe damage (number of plants) [1]: 15
- Some symptoms (number of plants) [1]: 33
- No Damage (number of plants) ([2]; line 311-22-1-4, 43 plants): 16
- Severe damage (number of plants) ([2]; line 311-22-1-4, 43 plants): 11
- Some symptoms (number of plants) ([2]; line 311-22-1-4, 43 plants): 16
- No Damage (number of plants) ([2]; line 311-22-1-5, 47 plants): 6
- Severe damage (number of plants) ([2]; line 311-22-1-5, 47 plants): 23
- Some symptoms (number of plants) ([2]; line 311-22-1-5, 47 plants): 18
- No Damage (number of plants) ([2]; line 311-22-1-8, 56 plants): 14
- Severe damage (number of plants) ([2]; line 311-22-1-8, 56 plants): 14
- Some symptoms (number of plants) ([2]; line 311-22-1-8, 56 plants): 28
- No Damage (number of plants) ([2]; line 512-21-1-5, 56 plants): 8
- Severe damage (number of plants) ([2]; line 512-21-1-5, 56 plants): 14
- Some symptoms (number of plants) ([2]; line 512-21-1-5, 56 plants): 34
- No Damage (number of plants) ([2]; line 512-21-4-3, 30 plants): 7
- Severe damage (number of plants) ([2]; line 512-21-4-3, 30 plants): 3
- Some symptoms (number of plants) ([2]; line 512-21-4-3, 30 plants): 20
- No Damage (number of plants) ([2]; line 512-21-4-5, 41 plants): 5
- Severe damage (number of plants) ([2]; line 512-21-4-5, 41 plants): 12
- Some symptoms (number of plants) ([2]; line 512-21-4-5, 41 plants): 24
- No Damage (number of plants) ([2]; line 512-24-4-4, 63 plants): 7
- Severe damage (number of plants) ([2]; line 512-24-4-4, 63 plants): 35
- Some symptoms (number of plants) ([2]; line 512-24-4-4, 63 plants): 21
- plants that survived treatment with little or no herbicide damage [3]: 22
- survival following respray [4]: did not survive
- damage following respray [5]: no damage
- No Damage (number of plants) [6]: 0
- Severe damage (number of plants) [6]: 25
- Some symptoms (number of plants) [6]: 20

SMILES: Oc1ccc(Cl)cc1Cl [DCP, 2,4-dichlorophenol]
- toxicity to plants relative to 2,4-D [7]: much less toxic to plants than 2,4-D
